Data reported in PubChem BioAssay AID1963972 (Molecular Pharmacology Branch, DTP, NCI, 2024).

System: 945468-187-T-J2-PDC spheroids viability
Assay: Anticancer human tumor 945468-187-T-J2-PDC patient-derived rectal carcinoma cell line growth inhibition [PI3K]
Settings: spheroids with HUVEC and MSC; for IC50: curve of first compound; for viability, T/C: stronger effect = lower value
Procedure, shortened: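 High-throughput combination screen: PI3K inhibitors crossed with targeted small molecules on complex spheroids of tumor cells, HUVEC and MSCs at 37 degrees C, 5% CO2. Top concentration was at or near clinical Cmax (otherwise 10 microM), with half-log decrements.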

[1] = second compound 0.0316 µM, first compound 0.0316 µM
[2] = second compound 0.0316 µM, first compound 0.1 µM
[3] = second compound 0.0316 µM, first compound 0.316 µM
[4] = second compound 0.0316 µM, first compound 1 µM
[5] = second compound 0.1 µM, first compound 0.0316 µM
[6] = second compound 0.1 µM, first compound 0.1 µM
[7] = second compound 0.1 µM, first compound 0.316 µM
[8] = second compound 0.1 µM, first compound 1 µM
[9] = second compound 0.316 µM, first compound 0.0316 µM
[10] = second compound 0.316 µM, first compound 0.1 µM
[11] = second compound 0.316 µM, first compound 0.316 µM
[12] = second compound 0.316 µM, first compound 1 µM
[13] = second compound 1 µM, first compound 0.0316 µM
[14] = second compound 1 µM, first compound 0.1 µM
[15] = second compound 1 µM, first compound 0.316 µM
[16] = second compound 1 µM, first compound 1 µM
[17] = second compound 3.16 µM, first compound 0.0316 µM
[18] = second compound 3.16 µM, first compound 0.1 µM
[19] = second compound 3.16 µM, first compound 0.316 µM
[20] = second compound 3.16 µM, first compound 1 µM
[21] = second compound 10 µM, first compound 0.0316 µM
[22] = second compound 10 µM, first compound 0.1 µM
[23] = second compound 10 µM, first compound 0.316 µM
[24] = second compound 10 µM, first compound 1 µM
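Also: spheroids exposed to compounds for seven days before reading.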

SMILES: CCN1CCN(Cc2ccc(Nc3ncc(F)c(-c4cc(F)c5nc(C)n(C(C)C)c5c4)n3)nc2)CC1 + Cc1nc(NC(=O)N2CCCC2C(N)=O)sc1-c1ccnc(C(C)(C)C(F)(F)F)c1
- IC50 (second compound 0.0316 µM): > 1 µM
- IC50 (second compound 0.1 µM): > 1 µM
- IC50 (second compound 0.316 µM): > 1 µM
- IC50 (second compound 1 µM): > 1 µM
- IC50 (second compound 3.16 µM): 0.753 µM
- IC50 (second compound 10 µM): 0.322 µM
- viability, T/C (second compound 0.0316 µM, first compound 0.00316 µM): 84.8%
- viability, T/C (second compound 0.0316 µM, first compound 0.01 µM): 103%
- viability, T/C [1]: 123%
- viability, T/C [2]: 91.5%
- viability, T/C [3]: 107%
- viability, T/C [4]: 105%
- viability, T/C (second compound 0.1 µM, first compound 0.00316 µM): 124%
- viability, T/C (second compound 0.1 µM, first compound 0.01 µM): 104%
- viability, T/C [5]: 131%
- viability, T/C [6]: 88.9%
- viability, T/C [7]: 103%
- viability, T/C [8]: 76.2%
- viability, T/C (second compound 0.316 µM, first compound 0.00316 µM): 103%
- viability, T/C (second compound 0.316 µM, first compound 0.01 µM): 91.8%
- viability, T/C [9]: 123%
- viability, T/C [10]: 104%
- viability, T/C [11]: 118%
- viability, T/C [12]: 73.6%
- viability, T/C (second compound 1 µM, first compound 0.00316 µM): 118%
- viability, T/C (second compound 1 µM, first compound 0.01 µM): 108%
- viability, T/C [13]: 115%
- viability, T/C [14]: 108%
- viability, T/C [15]: 96.8%
- viability, T/C [16]: 58.9%
- viability, T/C (second compound 3.16 µM, first compound 0.00316 µM): 119%
- viability, T/C (second compound 3.16 µM, first compound 0.01 µM): 92.9%
- viability, T/C [17]: 111%
- viability, T/C [18]: 93.5%
- viability, T/C [19]: 84.2%
- viability, T/C [20]: 38.7%
- viability, T/C (second compound 10 µM, first compound 0.00316 µM): 81.5%
- viability, T/C (second compound 10 µM, first compound 0.01 µM): 84.4%
- viability, T/C [21]: 94%
- viability, T/C [22]: 66.7%
- viability, T/C [23]: 52.8%
- viability, T/C [24]: 28.1%

SMILES: CC(C)NCC(C(=O)N1CCN(c2ncnc3c2C(C)CC3O)CC1)c1ccc(Cl)cc1 (centres undefined) + CC(Nc1ncnc2nc[nH]c12)c1cc2cccc(Cl)c2c(=O)n1-c1ccccc1
- IC50 (second compound 0.0316 µM): > 10 µM
- IC50 (second compound 0.1 µM): > 10 µM
- IC50 (second compound 0.316 µM): > 10 µM
- IC50 (second compound 1 µM): > 10 µM
- IC50 (second compound 3.16 µM): > 10 µM
- IC50 (second compound 10 µM): > 10 µM
- viability, T/C [1]: 88.1%
- viability, T/C [2]: 82%
- viability, T/C [3]: 111%
- viability, T/C [4]: 74.2%
- viability, T/C (second compound 0.0316 µM, first compound 3.16 µM): 116%
- viability, T/C (second compound 0.0316 µM, first compound 10 µM): 77.2%
- viability, T/C [5]: 97.1%
- viability, T/C [6]: 93.1%
- viability, T/C [7]: 78%
- viability, T/C [8]: 84%
- viability, T/C (second compound 0.1 µM, first compound 3.16 µM): 89.7%
- viability, T/C (second compound 0.1 µM, first compound 10 µM): 77.7%
- viability, T/C [9]: 86.4%
- viability, T/C [10]: 76.6%
- viability, T/C [11]: 107%
- viability, T/C [12]: 97.5%
- viability, T/C (second compound 0.316 µM, first compound 3.16 µM): 100%
- viability, T/C (second compound 0.316 µM, first compound 10 µM): 76.9%
- viability, T/C [13]: 69.1%
- viability, T/C [14]: 97.6%
- viability, T/C [15]: 86.4%
- viability, T/C [16]: 106%
- viability, T/C (second compound 1 µM, first compound 3.16 µM): 92.6%
- viability, T/C (second compound 1 µM, first compound 10 µM): 67.9%
- viability, T/C [17]: 80.8%
- viability, T/C [18]: 75.3%
- viability, T/C [19]: 77%
- viability, T/C [20]: 116%
- viability, T/C (second compound 3.16 µM, first compound 3.16 µM): 84.7%
- viability, T/C (second compound 3.16 µM, first compound 10 µM): 76.9%
- viability, T/C [21]: 93.7%
- viability, T/C [22]: 96.1%
- viability, T/C [23]: 86.2%
- viability, T/C [24]: 103%
- viability, T/C (second compound 10 µM, first compound 3.16 µM): 90.4%
- viability, T/C (second compound 10 µM, first compound 10 µM): 81%
